Data on five molecules can be found in patent US20090181950A1, “Histamine Receptor Antagonists Comprising an Azepin Core” (GLAXO GROUP LIMITED, priority 2006, published 2009).

Structures can show the parent of a compound that is named as a salt.

One data set addresses T1, human H1 receptor (Homo sapiens, UniProt P35367).
T1 construct: expressed in transfected cells
Put plainly: Histamine H1 functional antagonist assay (FLIPR): antagonist pA2. The data set is classed as cell-based. As for the experimental part: The human H1 receptor is cloned using known procedures described in the literature [Biochem. Biophys. Res. Commun., 201(2):894 (1994)]. Chinese hamster ovary (CHO) cells stably expressing the human H1 receptor are generated according to known procedures described in the literature [Br. J. Pharmacol., 117(6):1071 (1996)].
The histamine H1 receptor expressing CHO cells are seeded into non-coated black-walled clear bottom 96-well tissue culture plates as described above.
Following overnight culture, growth medium is removed from each well, washed with 200 μl phosphate buffered saline (PBS) and is replaced with 50 μl loading dye (250 μM Brilliant Black, 1 μM Fluo-4 diluted in Tyrodes buffer+probenecid (145 mM NaCl, 2.5 mM KCl, 10 mM HEPES, 10 mM D-glucose, 1.2 mM MgCl2, 1.5 mM CaCl2, 2.5 mM probenecid, pH adjusted to 7.40 with NaOH 1.0 M)). Cells are incubated for 45 min at 37° C. The loading buffer is removed and the cells are washed as above, and 90 μl of Tyrodes buffer+probenecid is added to each well. 10 μl of test compound, diluted to the required concentration in Tyrodes buffer+probenecid (or 10 μl Tyrodes buffer+probenecid as a control) is added to each well and the plate is incubated for 30 min at 37° C., 5% CO2.
The plates are then placed into a FLIPR™ (Molecular Devices, UK) to monitor cell fluorescence (λex=488 nm, λEM=540 nm) in the manner described in Sullivan et al., (In: Lambert DG (ed.), Calcium Signaling Protocols, New Jersey: Humana Press, 1999, 125-136) before and after the addition of 50 μl histamine over a concentration range of 1 mM-0.1 nM. The resultant concentration response curves are analysed by non-linear regression using a standard four parameter logistic equation to determine the histamine EC50, the concentration of histamine required to produce a response of 50% of the maximum response to histamine. The antagonist pA2 is calculated using the following standard equation: pA2=log(DR−1)−log[B] where DR=dose ratio, defined as EC50antagonist-treated/EC50control and [B]=concentration of antagonist.

The nature of data set [1]: CNS penetration by bolus administration. The data set is classed as in vivo, male CD Sprague Dawley rats. The note with it: 1 mg/kg intravenously, blood and brain at 5 min post-dose. As for the experimental part:
Compounds are dosed intravenously at a nominal dose level of 1 mg/kg to male CD Sprague Dawley rats. Compounds are formulated in 5% DMSO/45% PEG200/50% water. Blood samples are taken under terminal anaesthesia with isoflurane at 5 min post-dose and the brains are also removed for assessment of brain penetration. Blood samples are taken directly into heparinised tubes. Blood samples are prepared for analysis using protein precipitation and brain samples are prepared using extraction of drug from brain by homogenisation and subsequent protein precipitation. The concentration of parent drug in blood and brain extracts is determined by quantitative LC-MS/MS analysis using compound-specific mass transitions.

T1 sequence (P35367 whole entry): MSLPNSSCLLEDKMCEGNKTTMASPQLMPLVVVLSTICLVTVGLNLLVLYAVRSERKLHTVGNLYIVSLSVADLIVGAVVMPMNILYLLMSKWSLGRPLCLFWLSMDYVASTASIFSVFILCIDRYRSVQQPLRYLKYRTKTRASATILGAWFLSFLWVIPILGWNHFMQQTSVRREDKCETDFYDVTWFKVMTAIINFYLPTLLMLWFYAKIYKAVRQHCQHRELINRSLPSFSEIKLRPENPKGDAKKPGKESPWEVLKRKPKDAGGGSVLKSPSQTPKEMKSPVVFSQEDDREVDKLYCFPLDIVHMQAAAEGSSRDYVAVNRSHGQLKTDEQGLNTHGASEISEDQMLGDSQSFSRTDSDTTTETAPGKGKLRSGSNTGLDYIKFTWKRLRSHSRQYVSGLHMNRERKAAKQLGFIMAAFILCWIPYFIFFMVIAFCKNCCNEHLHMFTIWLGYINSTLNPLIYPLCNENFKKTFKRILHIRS

As for `O=C(O)CCc1ccc2cc(Cc3ccccc3)cc(N3CCN(CCc4ccc(OCCCN5CCCCCC5)cc4)CC3)c2n1` [Example 1, 3-[8-{4-[2-(4-{[3-(Hexahydro-1H-azepin-1-yl)propyl]oxy}phenyl)ethyl]-1-piperazinyl}-6-(phenylmethyl)-2-quinolinyl]propanoic Acid, Formate Salt], on human H1 receptor, the antagonist dissociation constant (Kb) (commonly the affinity of an antagonist, worked out from how it opposes an agonist) was under 10 nM. The CNS penetration result in data set [1] is reported as “low CNS penetration”. For `CCc1cc(N2CCN(CCc3ccc(OCCCN4CCCCCC4)cc3)CC2)c2nc(CCC(=O)O)ccc2c1` [Example 2, 3-(6-Ethyl-8-{4-[2-(4-{[3-(hexahydro-1H-azepin-1-yl)propyl]oxy}phenyl)ethyl]-1-piperazinyl}-2-quinolinyl)propanoic Acid, Formate Salt], in that order: under 10 nM and “low CNS penetration”. The matching figures for `O=C(O)CCc1ccc2cccc(N3CCN(CCc4ccc(OCCCN5CCCCCC5)cc4)CC3)c2n1` [Example 3, 3-(8-{4-[2-(4-{[3-(Hexahydro-1H-azepin-1-yl)propyl]oxy}phenyl)ethyl]-1-piperazinyl}-2-quinolinyl)propanoic Acid, Formic Acid (1:2)]: under 10 nM and “low CNS penetration”. With `O=C(O)CCc1cnc2c(N3CCN(CCc4ccc(OCCCN5CCCCCC5)cc4)CC3)cccc2c1` [Example 5, 3-(8-{4-[2-(4-{[3-(hexahydro-1H-azepin-1-yl)propyl]oxy}phenyl)ethyl]-1-piperazinyl}-3-quinolinyl)propanoic Acid, Formic Acid Salt], the antagonist equilibrium constant (Kb) on human H1 receptor was under 100 nM. Still for that read-out and setting: to `CCCCc1cc(N2CCN(CCc3ccc(OCCCN4CCCCCC4)cc3)CC2)c2nc(CCC(=O)O)ccc2c1` [Example 6, 3-(6-Butyl-8-{4-[2-(4-{[3-(hexahydro-1H-azepin-1-yl)propyl]oxy}phenyl)ethyl]-1-piperazinyl}-2-quinolinyl)propanoic Acid, Formate Salt] belongs under 10 nM.
